“Also recorded” adds a separate entry of the source. Where two headings read alike, the source gives them in different places.
Columns and labels:
Type in all cases: cell-based
[1] = tested on: PAM 212 murine epidermal keratinocyte; assay: Cell proliferation assay, PAM 212 murine epidermal keratinocytes; settings: for cell proliferation as a percent of control cell proliferation: control = cells treated with PBS only; for cell proliferation activity (in words): epidermal keratinocytes
Protocol: To examine this question, an overlapping set of peptide fragments of HB-107 was generated using standard solid phase peptide chemistry. These peptides were then assayed for cell proliferation activity at concentrations of 0.22, 2.15, 21.5 and 46.4 μg/mL.
The cell proliferation assays proceeded from the following experimental protocol:
Cell Proliferation Assay Using a Mouse Keratinocyte Cell Line.
OBJECTIVE: To determine the anti-proliferative or cytotoxic potential of a test article when applied to epidermal keratinocytes in culture.
TEST SYSTEM: Either the murine keratinocyte cell line PAM212 or primary Normal Human Epidermal Keratinocytes (NHEK, from Clonetics) are preferred models, although other cells may be used.
Keratinocytes are examined microscopically daily. As the culture becomes 50-75% confluent, the media in the plate is aspirated and 0.25% trypsin/EDTA is added (0.05% trypsin for human cells). When the cells become rounded, the trypsin is neutralized by addition of an equal volume of DMEM or KBM supplemented with approximately 10% bovine serum or by using trypsin neutralizing solution (TNS, from Clonetics). Cells are then centrifuged and the pellet is resuspended in 1 ml of DMEM-1 or KBM. A hemacytometer is used to count the cell suspension and the total number of cells/mL is adjusted to 1.5-2.5×10^4 cells/mL with DMEM-1 or KBM. Cells are then plated in 96-well plates at a concentration of 3.0-5.0×10^3 cells/well by adding 200 μL of the cell suspension to each well. Typically, the central 60 wells are used and the outer wells are filled with DMEM or PBS to minimize evaporation effects.
A stock solution of the test article is prepared using DMEM-1 or KBM, and all other dilutions are henceforth prepared from this solution. Typically, each dilution is filtered through an 0.2-μm filter before application to the cell culture. A 1.0% (w/v or v/v) solution or suspension is prepared, and 10-fold or 3-fold serial dilutions are made in culture medium.
The cells are examined 18-24 hours after plating to ensure cell attachment and division, and then 100 μL of the media is aspirated, leaving behind 100 μL in each well. Then 100 μL of a 2× concentration of each test article dilution is added to the replicate wells. For the negative control, 100 μL of the vehicle media (DMEM-1 or KBM) is added to the control wells. The microplate is then incubated at 37 degrees C. and 5.0% CO2 for 48-72 hours after dosing, and cells are allowed to proliferate undisturbed. Following this 48-72 hour exposure, all media is aspirated and proliferation is assessed by one of the below methods.
Option A: neutral red uptake. After exposure and aspiration of media, 200 μL of neutral red media is immediately added to each well. The microplate is returned to the incubator for an additional three hours. Following this dye uptake period, the microplate is removed from the incubator and gently inverted, and the neutral red media is decanted into a collection pan. The cells are then fixed with fixing solution for approximately one minute. The fixing solution is decanted off, and the microplate is washed gently three times with washing solution. The washing solution is decanted, and 200 μL of lysing solution is added. After at least 15 minutes, the contents of each well are re-pipetted to ensure even color distribution in each well, and an aliquot is read on the spectrophotometer as detailed below.
Option B: MTT conversion assay. After exposure and aspiration of media, 200 μL of MTT assay media is immediately added to each well. […] The microplate is returned to the incubator for an additional three hours. Following this dye uptake period, the microplate is removed from the incubator and gently inverted, and the MTT media is decanted into a collection pan. The cells are then washed gently three times with washing solution. The washing solution is decanted, and 200 μL of lysing solution is added. […]

[2] = tested on: IL6 expression in epithelial cells; assay: Repression of IL6 expression in resting epithelial cells; settings: for % Change in IL6 expression / Change in IL6 versus PBS control: 20 μg/mL peptide
Text: The protocol for this assay is standard and described by Murakami et al. (2004, J. Immunol. 172:[…]), the article of which is incorporated herein by reference in its entirety.

[3] = tested on: human epidermal keratinocyte; assay: Keratinocyte cell migration assay (tissue culture scratch test); settings: for cell migration activity (in words): scratch test
Text: Cell proliferation alone is not sufficient to aid in wound healing. Upon sustaining an injury, cells bordering the wound proliferate; the migration of such newly formed cells to close the injury (or chronic lesion of older, dysfunctional tissue) is of equal importance. To address this issue, HB-107 and peptide fragments thereof were examined using a keratinocyte cell migration assay based on a simple tissue culture scratch test. […] The protocol for this assay is standard and has been described by Shanley et al. (2004, Invest. Ophthalmol. Vis. Sci. 45:1088-1094), the article of which is herein incorporated by reference in its entirety.

[4] = 24 hr after addition of 20 μg/mL peptide
[5] = 48 hr after addition of 20 μg/mL peptide

Substance | cell proliferation as a percent of control cell proliferation ([1]; 0.22 μg/mL peptide) [%] | cell proliferation as a percent of control cell proliferation ([1]; 2.15 μg/mL peptide) [%] | cell proliferation as a percent of control cell proliferation ([1]; 21.5 μg/mL peptide) [%] | cell proliferation as a percent of control cell proliferation ([1]; 46.4 μg/mL peptide) [%] | cell proliferation activity (in words) [1] | further results
VFLKIEKMG (listed as Hyalophora cecropia) [HB-1071, fragment of HB-107] | 106 | 127 | 188 | 155 |  | cell proliferation activity (in words) ([1]; listed as 5): strongest proliferative activity; cell proliferation activity (in words) ([1]; listed as SEQ ID NO:5): can induce cell proliferation
KMGRNIRN (listed as Hyalophora cecropia) [HB-1060, fragment of HB-107] | 57 | 52 | 90 | 83 |  | 
KEKVFLKIE (listed as Hyalophora cecropia) [HB-1076, fragment of HB-107] |  |  |  |  |  | IL6 reduction / anti-inflammatory activity in resting cells (in words) [2]: decrease the level of IL6 expression to the same degree as the HB-107 parent peptide; amount of IL6, Average [2, 4]: 266.7 pg/mL; amount of IL6, Well 1 [2, 4]: 278.32 pg/mL; amount of IL6, Well 2 [2, 4]: 255.08 pg/mL; % Change in IL6 expression ([2]; 24 hr): −17.60%; Change in IL6 versus PBS control ([2]; 24 hr): −56.8; amount of IL6, Average [2, 5]: 727.59 pg/mL; amount of IL6, Well 1 [2, 5]: 726.73 pg/mL; amount of IL6, Well 2 [2, 5]: 728.45 pg/mL; % Change in IL6 expression ([2]; 48 hr): −25.40%; Change in IL6 versus PBS control ([2]; 48 hr): −247.445; IL6 reduction / anti-inflammatory activity in resting cells (in words) ([2]; listed as SEQ ID NO:8): having anti-inflammatory activity
VFLKIEK (listed as Hyalophora cecropia) [HB-1074, fragment of HB-107] | 97 | 93 | 120 | 149 | can induce cell proliferation | 
LKIEKMGRNIRN (listed as Hyalophora cecropia) [HB-1056, fragment of HB-107] | 48 | 39 | 64 | 97 |  | 
MPKEKVFLKIEKMG (listed as Hyalophora cecropia) [HB-912, fragment of HB-107] | 100 | 84 | 125 | 137 | can induce cell proliferation | 
GRNIRN (listed as Hyalophora cecropia) [HB-1062, fragment of HB-107] |  |  |  |  |  | percent closure of the scratch compared to initial width ([3]; 6 hr exposure to peptide): 0%; percent closure of the scratch compared to initial width ([3]; 10 hr exposure to peptide): 24%; cell migration activity (in words) [3]: no migratory activity
EKMGRNIRN (listed as Hyalophora cecropia) [HB-1059, fragment of HB-107] | 95 | 128 | 162 | 186 |  | cell proliferation activity (in words) ([1]; listed as SEQ ID NO:2): strongest proliferative activity; also recorded: can induce cell proliferation
KIEKMG (listed as Hyalophora cecropia) [HB-1072, fragment of HB-107] | 98 | 107 | 185 | 237 | significant increases in cell proliferation compared to induction by HB-107; also recorded: significant increase in the proliferation of epidermal keratinocytes at low concentrations | cell proliferation activity (in words) ([1]; listed as 6): strongest proliferative activity; cell proliferation activity (in words) ([1]; listed as SEQ ID NO:6): can induce cell proliferation; percent closure of the scratch compared to initial width ([3]; 6 hr exposure to peptide): 55%; percent closure of the scratch compared to initial width ([3]; 10 hr exposure to peptide): 77%; cell migration activity (in words) [3]: just as capable as HB-107 in inducing cell migration; also recorded: capable of increasing the migration of cells in a manner similar to that of the parent HB-107 peptide; cell migration activity (in words) ([3]; listed as SEQ ID NO:6): can induce cell proliferation and migration
MGRNIRN (listed as Hyalophora cecropia) [HB-1061, fragment of HB-107] | 122 | 156 | 163 | 241 | significant increases in cell proliferation compared to induction by HB-107; also recorded: significant increase in the proliferation of epidermal keratinocytes at low concentrations | cell proliferation activity (in words) ([1]; listed as 3): strongest proliferative activity; cell proliferation activity (in words) ([1]; listed as SEQ ID NO:3): can induce cell proliferation; percent closure of the scratch compared to initial width ([3]; 6 hr exposure to peptide): 44%; percent closure of the scratch compared to initial width ([3]; 10 hr exposure to peptide): 67%; cell migration activity (in words) [3]: just as capable as HB-107 in inducing cell migration; also recorded: capable of increasing the migration of cells in a manner similar to that of the parent HB-107 peptide; cell migration activity (in words) ([3]; listed as SEQ ID NO:3): can induce cell proliferation and migration
KIEKMGRNIRN (listed as Hyalophora cecropia) [HB-1057, fragment of HB-107] | 121 | 118 | 171 | 167 |  | cell proliferation activity (in words) ([1]; listed as 9): strongest proliferative activity; cell proliferation activity (in words) ([1]; listed as SEQ ID NO:9): can induce cell proliferation
